Assays:
Sigma receptors = Sigma receptors (Homo sapiens, UniProt Q99720); experiment: Sigma receptor affinity (pentazocine binding)
NMDA receptors = experiment: NMDA receptor affinity (MK 801 binding)
Experimental: The affinity and selectivity of the compounds described above in greater detail for sigma receptors in comparison with NMDA receptors were determined following published methods (Kornhuber et al.: Eur. J. Pharmacol. 162, 483-490, 1989 and Neurosci. Lett. 163, 129-131, 1993).

Sigma receptors, sequence (Q99720 whole entry): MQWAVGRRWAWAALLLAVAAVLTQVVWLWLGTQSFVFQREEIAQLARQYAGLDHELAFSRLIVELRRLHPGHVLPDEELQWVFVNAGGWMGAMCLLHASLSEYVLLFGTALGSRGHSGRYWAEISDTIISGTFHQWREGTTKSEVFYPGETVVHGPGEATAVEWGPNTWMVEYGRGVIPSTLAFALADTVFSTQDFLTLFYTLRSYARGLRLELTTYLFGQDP

Row | SMILES | Ki (Sigma receptors) [µM] | Ki (NMDA receptors) [µM]
1 | CC(C)(C)N1CCC(c2ccccc2)(c2ccccc2)CC1 [Budipine, budipine] | 2 | 11.7
2 | CC12CC3CC(C)(C1)CC(N)(C3)C2 [Memantine] | 20 | 0.5
3 | NC12CC3CC(CC(C3)C1)C2 [Amantadine] | – | 10.5
